Assay results as given in article PMC10620772, “Design, synthesis, and biological evaluation of new pyrimidine-5-carbonitrile derivatives as novel anti-cancer, dual EGFR^WT/COX-2 inhibitors with docking studies” (RSC Advances, 2023).

How the values were obtained:
[1] = test system: NCI/ADR-RES; experiment: NCI60 antitumor screening; type: cell-based, human; details: Homo sapiens; 10 μM single dose; NCI/ADR-RES (ovarian cancer); read-out: growth inhibition percent (GI%)
[2] = test system: SK-OV-3; experiment: NCI60 antitumor screening; type: cell-based, human; details: Homo sapiens; 10 μM single dose; SK-OV-3 (ovarian cancer); read-out: growth inhibition percent (GI%)
[3] = test system: SF-268; experiment: NCI60 antitumor screening; type: cell-based, human; details: Homo sapiens; 10 μM single dose; SF-268 (CNS cancer); read-out: growth inhibition percent (GI%)
[4] = test system: OVCAR-5; experiment: NCI60 antitumor screening; type: cell-based, human; details: Homo sapiens; 10 μM single dose; OVCAR-5 (ovarian cancer); read-out: growth inhibition percent (GI%)
[5] = test system: COLO 205; experiment: NCI60 antitumor screening; type: cell-based, human; details: Homo sapiens; 10 μM single dose; COLO 205 (colon cancer); read-out: growth inhibition percent (GI%)
[6] = test system: NCI60 cell lines panel; experiment: NCI60 antitumor screening, full panel; type: cell-based, human; details: Homo sapiens; 10 μM single dose; mean over NCI60 cell lines; read-out: Mean growth inhibition percent (GI%)
Outline: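 Single-concentration screen at 10 μM across the NCI60 panel (leukaemia, NSCLC, colon, CNS, melanoma, ovarian, renal, prostate, breast). Results are expressed as percent growth inhibition (GI%) of treated lines.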

[7] = test system: U251; experiment: NCI60 antitumor screening; type: cell-based, human; details: Homo sapiens, U-251; 10 μM single dose; U251 (CNS cancer); read-out: growth inhibition percent (GI%)
[8] = test system: MCF7; experiment: NCI60 antitumor screening; type: cell-based, human; details: Homo sapiens; 10 μM single dose; MCF7 (breast cancer); read-out: growth inhibition percent (GI%)
[9] = test system: SNB-75; experiment: NCI60 antitumor screening; type: cell-based, human; details: Homo sapiens; 10 μM single dose; SNB-75 (CNS cancer); read-out: growth inhibition percent (GI%)
[10] = test system: ACHN; experiment: NCI60 antitumor screening; type: cell-based, human; details: Homo sapiens; 10 μM single dose; ACHN (renal cancer); read-out: growth inhibition percent (GI%)
[11] = test system: BT-549; experiment: NCI60 antitumor screening; type: cell-based, human; details: Homo sapiens; 10 μM single dose; BT-549 (breast cancer); read-out: growth inhibition percent (GI%)
[12] = test system: HCC-2998; experiment: NCI60 antitumor screening; type: cell-based, human; details: Homo sapiens; 10 μM single dose; HCC-2998 (colon cancer); read-out: growth inhibition percent (GI%)
[13] = test system: KM12; experiment: NCI60 antitumor screening; type: cell-based, human; details: Homo sapiens; 10 μM single dose; KM12 (colon cancer); read-out: growth inhibition percent (GI%)
[14] = test system: EKVX; experiment: NCI60 antitumor screening; type: cell-based, human; details: Homo sapiens; 10 μM single dose; EKVX (non-small cell lung cancer); read-out: growth inhibition percent (GI%)
[15] = test system: SK-MEL-2; experiment: NCI60 antitumor screening; type: cell-based, human; details: Homo sapiens; 10 μM single dose; SK-MEL-2 (melanoma); read-out: growth inhibition percent (GI%)
[16] = test system: SNB-19; experiment: NCI60 antitumor screening; type: cell-based, human; details: Homo sapiens; 10 μM single dose; SNB-19 (CNS cancer); read-out: growth inhibition percent (GI%)
[17] = test system: HS 578T; experiment: NCI60 antitumor screening; type: cell-based, human; details: Homo sapiens; 10 μM single dose; HS 578T (breast cancer); read-out: growth inhibition percent (GI%)
[18] = test system: SF-295; experiment: NCI60 antitumor screening; type: cell-based, human; details: Homo sapiens; 10 μM single dose; SF-295 (CNS cancer); read-out: growth inhibition percent (GI%)
[19] = test system: OVCAR-4; experiment: NCI60 antitumor screening; type: cell-based, human; details: Homo sapiens; 10 μM single dose; OVCAR-4 (ovarian cancer); read-out: growth inhibition percent (GI%)
[20] = test system: MOLT-4; experiment: NCI60 antitumor screening; type: cell-based, human; details: Homo sapiens; 10 μM single dose; MOLT-4 (leukaemia); read-out: growth inhibition percent (GI%)
[21] = test system: NCI-H460; experiment: NCI60 antitumor screening; type: cell-based, human; details: Homo sapiens; 10 μM single dose; NCI-H460 (non-small cell lung cancer); read-out: growth inhibition percent (GI%)

Molecule Cc1ccc(CSc2nc(-c3ccc(F)cc3)c(C#N)c(N3CCN(c4ccccc4)CC3)n2)cc1 [4p, 4-(4-Fluorophenyl)-2-((4-methylbenzyl)thio)-6-(4-phenylpiperazin-1-yl) pyrimidine-5-carbonitrile] has an inhibition at 10 µM [1] of less than 10%, an inhibition at 10 µM [2] of less than 10% and an inhibition at 10 µM [3] of 15.3%. It also gave an inhibition at 10 µM [4] of less than 10%, an inhibition at 10 µM [5] of 12.2% and an inhibition at 10 µM [6] of less than 10%. The inhibition at 10 µM [7] was less than 10%, the inhibition at 10 µM [8] was 21.3% and the inhibition at 10 µM [9] was 14.8%. The inhibition at 10 µM [10] was less than 10%, the inhibition at 10 µM [11] was less than 10% and the inhibition at 10 µM [12] was less than 10%. The melting point was 145 to 147 °C, the inhibition at 10 µM [13] was less than 10% and the inhibition at 10 µM [14] was 20.3%. The inhibition at 10 µM [15] was 15.1%, the inhibition at 10 µM [16] was less than 10% and the inhibition at 10 µM [17] was less than 10%. The inhibition at 10 µM [18] was less than 10%, the inhibition at 10 µM [19] was 10.6% and the inhibition at 10 µM [20] was less than 10%. It also gave an inhibition at 10 µM [21] of less than 10%.
